Assay results reported in patent publication US10464925B2, “Methods to induce targeted protein degradation through bifunctional molecules” (Dana-Farber Cancer Institute, Inc., priority 2015, dated 2019).
Read-outs that look alike come from different tables or passages of the source.

Legend:
CRBN-DDB1 = target: T1, CRBN-DDB1 (Homo sapiens, UniProt Q96SW2); test: CRBN-DDB1 Ligand-Displacement AlphaScreen Assay (thalidomide competition); assay type: binding; details: read-out: CRBN alpha IC50;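 also: streptavidin donor and nickel chelate acceptor bead proximity signal after 30 min incubation, normalized with no-protein background as 0% and DMSO wells as 100% activity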
T1 construct: 6xHis (given for the complex); made in house; host or cells: Sf9 cells (Invitrogen), pFastBac

797 = test: Cell viability, 797 cells (Table 4); assay type: cell-based; details: read-out: IC50 (nM) 797
[1] = target: T2, BRD4 adjoined to nanoluciferase (Nluc) (Homo sapiens, UniProt O60885+Q96SW2); test: BRD4 Dual Luciferase Assay; assay type: cell-based; details: for Emax: BRD4 remaining at Emax, read-out: BRD4− Emax (percent remaining);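 as to all read-outs here: transduced reporter cells exposed to compound for 4 h, then Nluc and Fluc luminescence read, each normalized to DMSO controls and expressed as Nluc/Fluc ratio per well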
T2 construct: expressed in transfected cells

[2] = 4 hours, read-out: max degradation (dual luc)
[3] = read-out: BRD4 max degradation(%) Dual Luciferase

Row | Structure (SMILES) | IC50 (CRBN-DDB1) | also measured
1 | Cc1sc2c(c1C)C(c1ccc(Cl)cc1)=N[C@@H](CC(=O)NCc1ccc(CNC(=O)COc3cccc4c3C(=O)N(C3CCC(=O)NC3=O)C4=O)cc1)c1nnc(C)n1-2 (some centres unmarked) [dBET41] | – | IC50 797: 726 nM
2 | C[C@]1(N2C(=O)c3cccc(OCC(=O)O)c3C2=O)CCC(=O)NC1=O [Compound D-55, (S)-2-((2-(3-methyl-2,6-dioxopiperidin-3-yl)-1,3-dioxoisoindolin-4-yl)oxy)acetic acid] | > 50000 nM | –
3 | Cc1sc2c(c1C)C(c1ccc(Cl)cc1)=N[C@@H](CC(=O)NCCOCCOc1cccc3c1C(=O)N(C1CCC(=O)NC1=O)C3=O)c1nnc(C)n1-2 (some centres unmarked) [dBET27] | – | Conc@Emax [1]: 0.5 µM; Dmax [1, 2]: 30%; Emax [1]: 67.3%; Dmax [1, 3]: 30%
4 | Cc1sc2c(c1C)C(c1ccc(Cl)cc1)=N[C@@H](CC(=O)NCCCCCCOc1cccc3c1C(=O)N(C1CCC(=O)NC1=O)C3=O)c1nnc(C)n1-2 (some centres unmarked) [dBET29] | – | Conc@Emax [1]: 0.05 µM; Dmax [1, 2]: 19%; Emax [1]: 75.5%; Dmax [1, 3]: 19%
5 | C[C@]1(N2C(=O)c3cccc(O)c3C2=O)CCC(=O)NC1=O [Compound D-53, (S)-4-hydroxy-2-(3-methyl-2,6-dioxopiperidin-3-yl)isoindoline-1,3-dione] | 56100 nM | –
6 | C[C@@]1(N2C(=O)c3cccc(O)c3C2=O)CCC(=O)NC1=O [Compound D-52, (R)-4-hydroxy-2-(3-methyl-2,6-dioxopiperidin-3-yl)isoindoline-1,3-dione] | 39500 nM | –
7 | Cc1c(C(=O)NCCCCCCCCNC(=O)COc2cccc3c2C(=O)N(C2CCC(=O)NC2=O)C3=O)sc2c1C(c1ccc(Cl)cc1)=N[C@@H](CC(=O)NCCCN1CCN(C)CC1)c1nnc(C)n1-2 (some centres unmarked) [dBET31] | – | Emax [1]: 45.6%
8 | O=C1CCC(N2C(=O)c3ccc([N+](=O)[O-])cc3C2=O)C(=O)N1 [Compound D-61] | 2660 nM | –
9 | Cc1sc2c(c1C)C(c1ccc(Cl)cc1)=N[C@@H](CC(=O)NCCOCCOCCNC(=O)COc1cccc3c1C(=O)N(C1CCC(=O)NC1=O)C3=O)c1nnc(C)n1-2 (some centres unmarked) [dBET24] | – | Conc@Emax [1]: 5 µM; Dmax [1, 2]: 50.4%; Emax [1]: 43%; Dmax [1, 3]: 50%

Now from value to compound, other results behind:

Row | IC50 (CRBN-DDB1) | Structure (SMILES) | also measured
10 | 40.1 nM | O=C1CCC(N2C(=O)c3ccc(NCc4ccco4)cc3C2=O)C(=O)N1 [Compound D-28, 2-(2,6-dioxopiperidin-3-yl)-5-((furan-2-ylmethyl)amino)isoindoline-1,3-dione] | –
11 | 259 nM | CCOc1cccc2c1C(=O)N(C1CCC(=O)NC1=O)C2=O [Compound D-60] | –
12 | > 50000 nM | CCOc1cccc2c1C(=O)N(C1CCC(=O)N(CC)C1=O)C2=O [Compound D-59] | –
13 | 1120 nM | COC(=O)COc1cccc2c1C(=O)N(C1CCC(=O)NC1=O)C2=O [Compound D-65] | –
14 | 715 nM | O=C1CCC(N2C(=O)c3ccc(Br)cc3C2=O)C(=O)N1 [Compound D-58] | –
15 | 21.4 nM | O=C1CCC(N2C(=O)c3ccc(NC(=O)CCl)cc3C2=O)C(=O)N1 [Compound D-32, 2-chloro-N-(2-(2,6-dioxopiperidin-3-yl)-1,3-dioxoisoindolin-5-yl)acetamide] | –
16 | > 50000 nM | C[C@@]1(N2C(=O)c3cccc(OCC(=O)O)c3C2=O)CCC(=O)NC1=O [Compound D-54, (R)-2-((2-(3-methyl-2,6-dioxopiperidin-3-yl)-1,3-dioxoisoindolin-4-yl)oxy)acetic acid] | –
17 | 2130 nM | O=C(O)COc1cccc2c1C(=O)N(C1CCC(=O)NC1=O)C2=O [Compound D-64] | –
18 | 3060 nM | O=C1CCC(N2C(=O)c3cccc([N+](=O)[O-])c3C2=O)C(=O)N1 [Compound D-56] | –
19 | 1170 nM | O=C1CCC(N2C(=O)c3c(Cl)ccc(Cl)c3C2=O)C(=O)N1 [Compound D-51, 4,7-dichloro-2-(2,6-dioxopiperidin-3-yl)isoindoline-1,3-dione] | –
20 | 140 nM | CC(C)(C)OC(=O)NCCNc1cccc2c1C(=O)N(C1CCC(=O)NC1=O)C2=O [Compound D-29, tert-butyl (2-((2-(2,6-dioxopiperidin-3-yl)-1,3-dioxoisoindolin-4-yl)amino)ethyl)carbamate] | –
